Results from patent US6617355B1, “Treating asthma by preventing and/or accomodating S-nitrosothiol breakdown” (The University of Virginia Patent Foundation, priority 1997, dated 2003).

Columns and labels:
[1] = tested on: patient with severe asthma; assay: Treatment of patients with severe asthma or respiratory failure (Examples I-IX); assay type: in vivo, human
Experimental: A child with severe asthma developing symptoms of dyspnea, tachypnea, wheezing and cough is administered a 50 mM solution of L-gamma-glutamyl-(o-carboxy)phenylhydrazide as an aerosol via inhalation at a dosage of 0.01 ml/kg.
A person with severe asthma with symptoms of dyspnea on exertion, cough and prolonged expiration is administered a 10 mM solution of bathocuproine disulfonate via inhalation as an aerosol at a dose of 0.01 ml/kg.
A person with severe asthma with chronic symptoms of night-time cough, dyspnea and wheezing is maintained on inhalations of an aerosol of a 10 mM solution of each of S-nitrosoglutathione and aurothioglucose, at a dosage of 0.01 ml/kg.
A child with severe asthma and impending respiratory failure with symptoms of wheezing, cough and cyanosis is given terbutaline (5 μg/kg/min) by continuous IV-infusion. […] The terbutaline is replaced with an equimolar amount of terbutaline substituted with S-nitrosothiol group.
A person has respiratory failure with symptoms of wheezing, cough and cyanosis.
A person with respiratory failure with symptoms as described in Example V is given inhalation of a 10 mmol solution of S-nitroso-D-cysteine, 0.01 ml/kg.
A severe asthmatic with chronic dyspnea is given 30 mg daily prednisone.
A severe asthmatic is treated with inhalation of 1 mg allopurinol.
A severe asthmatic is treated with inhalation of a 10 mM solution of each of S-nitrosomethylmercaptan and ethacrynic acid, at a dosage of 0.01 ml/kg.

[2] = tested on: Guinea-pig tracheal rings; assay: Relaxation of methacholine-contracted guinea-pig tracheal rings by S-nitrosoglutathione pre-incubated with or without lung fractions; assay type: cell-based; settings: n=7
Experimental: Guinea-pig tracheal and lung parenchymal tissue were separately homogenized in 1 mM ethylenediaminetetraacetic acid, 50 mM TRIS HC1 buffer, pH 7.4, 10 mg/liter soybean trypsin inhibitor, 10 mg/liter pepstatin, 10 mg/liter chymostatin and 100 mg/liter phenylmethylsulfonyl fluoride at 4° C. and underwent centrifugation (5,000 g; 5 min) and filtration. The supernatant was loaded onto a DEAE cellulose column and eluted with a linear gradient of 0-250 mM NaCl. The S-nitrosoglutathione degrading activity was assayed as NO evolution. The results are depicted in FIG. 1 (fractions causing a net loss of NO are represented by diamonds).
Guinea-pig tracheal rings were suspended in Krebs-Henseleit buffer (pH 7.4, 37 degrees C., equilibrated with 95% oxygen/5% carbon dioxide) and equilibrated under one gram tension. Smooth muscle contraction was monitored using a force transducer. After contraction with 5 μM methacholine, rings were exposed to S-nitrosoglutathione which had been incubated (30 minutes, pH 7.4, 25 degrees C.) (a) in phosphate buffered saline alone, (b) with guinea-pig lung protein fractions having S-nitroglutathione breakdown activity isolated as described in Background Example 2, and (c) with active lung fractions and 100 μM aurothioglucose. […]

[3] = tested on: patients with mild or moderate asthma; assay: Treatment of patients with mild or moderate asthma (Examples X-XI); assay type: in vivo, human
Experimental: A child wakes up every night coughing and coughs on exertion. The patient is given inhalations of 0.01 ml/kg of a 10 mM solution of S-nitroso-D-cysteine.

With `Oc1ncnc2[nH]ncc12` [allopurinol] the asthma symptoms ([1]; Example VIII: severe asthmatic, inhalation of 1 mg) was “Symptoms improve”.

With `Cc1cc(-c2ccc(S(=O)(=O)O)cc2)c2ccc3c(-c4ccc(S(=O)(=O)O)cc4)cc(C)nc3c2n1` [bathocuproine disulfonate] the asthma symptoms ([1]; Example II: person, severe asthma, 10 mM solution via inhalation as aerosol, 0.01 ml/kg) was “symptoms improve”.

`N[C@@H](CCC(=O)N[C@@H](CSN=O)C(=O)NCC(=O)O)C(=O)O` [S-nitrosoglutathione] was tested, and the “relaxation of tracheal rings by S-nitrosoglutathione after incubation with active lung fractions” value ([2]; rings contracted with 5 μM methacholine, S-nitrosoglutathione incubated 30 minutes, pH 7.4, 25 degrees C with guinea-pig lung protein fractions, p<0.005 for all concentrations >500 nM) was “relaxation was nearly completely inhibited”.

`CC(C)(C)NCC(O)c1cc(O)cc(O)c1` (stereo not shown) [terbutaline] was tested, and the asthma symptoms ([1]; Example IV: child, severe asthma, impending respiratory failure, continuous IV-infusion 5 μg/kg/min or equimolar amount) was “No improvement occurs”.

With `N[C@H](CSN=O)C(=O)O` [S-nitroso-D-cysteine] the asthma symptoms ([1]; Example VI: person, respiratory failure, inhalation of 10 mmol solution, 0.01 ml/kg) was “Improvement occurs” and the asthma symptoms ([3]; Example X: child, night cough and cough on exertion, inhalations of 0.01 ml/kg of 10 mM solution) was “sleeps through the night and is able to participate in sports without shortness of breath”.

With `NC(CCC(=O)NNc1ccccc1C(=O)O)C(=O)O` [L-gamma-glutamyl-(o-carboxy)phenylhydrazide] the asthma symptoms ([1]; Example I: child, severe asthma, 50 mM solution as aerosol via inhalation, 0.01 ml/kg) was “symptoms improve”.

With `OC[C@H]1O[C@H]([S-])[C@H](O)[C@@H](O)[C@@H]1O.[Au+]` [aurothioglucose] the “restoration of S-nitrosoglutathione relaxation by inhibitor of breakdown” value ([2]; S-nitrosoglutathione incubated with active lung fractions and 100 μM aurothioglucose, p<0.001 at 50 μM) was “partially restored”.

`N[C@H](C(=O)O)[C@@H]1CC(Cl)=NO1` [acivicin] was tested, and the asthma symptoms ([1]; Example V: person, respiratory failure, parenteral methylprednisone 4 mg/kg and terbutaline 5 μg/kg/min, then nebulized acivicin 0.01 mmol/kg) was “symptoms improve” and the asthma symptoms ([3]; Example XI: person, wheezing and coughing three times a year, nebulized 0.01 mmol/kg) was “becomes asymptomatic”.
